#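 Each compound was tested at five concentrations against cells in 96-well plates for 48 hours. Abbreviation: GI50, concentration required for 50% inhibition of growth.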 Active and inactive are the calls of the source. No stated cut-off is given here; in the data, active = GI50 up to about 1.1 µM and inactive = higher.
# How the values were obtained:
# Assay in all cases: DTP human tumour cell line panel, 48 h
# COLO 205 = system: COLO 205
# SR = system: SR
# DU-145 = system: DU-145
# 786-0 = system: 786-0
# UACC-62 = system: UACC-62
# NCI-H226 = system: NCI-H226
# K562 = system: K562
# MDA-MB-231 = system: MDA-MB-231
# HCT-116 = system: HCT-116
# UO-31 = system: UO-31
# SK-OV-3 = system: SK-OV-3
# OVCAR-4 = system: OVCAR-4
# T47D = system: T47D
# SF-539 = system: SF-539
# MOLT-4 = system: MOLT-4
# TK-10 = system: TK-10
# SK-MEL-5 = system: SK-MEL-5
# SF-268 = system: SF-268
# HL-60 = system: HL-60
# SK-MEL-28 = system: SK-MEL-28
# CAKI-1 = system: CAKI-1
# CCRF-CEM = system: CCRF-CEM
# PC-3 = system: PC-3
# M14 = system: M14
# SNB-75 = system: SNB-75
# RXF 393 = system: RXF 393
# A549 = system: A549
# RPMI-8226 = system: RPMI-8226
# IGROV-1 = system: IGROV-1
# SF-295 = system: SF-295
# A498 = system: A498
# BT-549 = system: BT-549
# HOP-92 = system: HOP-92
# NCI-H522 = system: NCI-H522
# Malme-3M = system: Malme-3M
# MDA-MB-435 = system: MDA-MB-435
# MDA-N = system: MDA-N
# OVCAR-5 = system: OVCAR-5
# SK-MEL-2 = system: SK-MEL-2
# NCI-H460 = system: NCI-H460
# U-251 = system: U-251
# ACHN = system: ACHN
# Hs-578T = system: Hs-578T
# SW-620 = system: SW-620
# NCI-H23 = system: NCI-H23
# EKVX = system: EKVX
# SNB-19 = system: SNB-19
# KM12 = system: KM12
# HT-29 = system: HT-29
# UACC-257 = system: UACC-257
# SN12C = system: SN12C
# MCF7 = system: MCF7
# HCT-15 = system: HCT-15
structure (smiles),measurement,setting,value
Cc1cc(=O)[nH]c(-n2[nH]c3c(c2=O)CCCC3)n1,GI50,COLO 205,88.9 µM (inactive)
same,GI50,SR,63.1 µM (inactive)
same,GI50,DU-145,> 100 µM (inactive)
same,GI50,786-0,57.7 µM (inactive)
same,GI50,UACC-62,39.2 µM (inactive)
same,GI50,NCI-H226,> 100 µM (inactive)
same,GI50,K562,52.2 µM (inactive)
same,GI50,MDA-MB-231,67.9 µM (inactive)
same,GI50,HCT-116,41.9 µM (inactive)
same,GI50,UO-31,59.6 µM (inactive)
same,GI50,SK-OV-3,93.1 µM (inactive)
same,GI50,OVCAR-4,> 100 µM (inactive)
same,GI50,T47D,> 100 µM (inactive)
same,GI50,SF-539,88.5 µM (inactive)
same,GI50,MOLT-4,60.8 µM (inactive)
same,GI50,TK-10,> 100 µM (inactive)
same,GI50,SK-MEL-5,82 µM (inactive)
same,GI50,SF-268,28.2 µM (inactive)
same,GI50,HL-60,50.5 µM (inactive)
same,GI50,SK-MEL-28,45.7 µM (inactive)
same,GI50,CAKI-1,70.1 µM (inactive)
same,GI50,CCRF-CEM,34.5 µM (inactive)
same,GI50,PC-3,68.1 µM (inactive)
same,GI50,M14,73.1 µM (inactive)
same,GI50,SNB-75,< 0.01 µM (active)
same,GI50,RXF 393,14.3 µM (inactive)
same,GI50,A549,72.1 µM (inactive)
same,GI50,RPMI-8226,74.1 µM (inactive)
same,GI50,IGROV-1,97.3 µM (inactive)
same,GI50,SF-295,46 µM (inactive)
same,GI50,A498,> 100 µM (inactive)
same,GI50,BT-549,> 100 µM (inactive)
same,GI50,HOP-92,31 µM (inactive)
same,GI50,NCI-H522,> 100 µM (inactive)
same,GI50,Malme-3M,> 100 µM (inactive)
same,GI50,MDA-MB-435,> 100 µM (inactive)
same,GI50,MDA-N,> 100 µM (inactive)
same,GI50,OVCAR-5,69 µM (inactive)
same,GI50,SK-MEL-2,52.1 µM (inactive)
same,GI50,NCI-H460,25.9 µM (inactive)
same,GI50,U-251,58.5 µM (inactive)
same,GI50,ACHN,49.4 µM (inactive)
same,GI50,Hs-578T,92.9 µM (inactive)
same,GI50,SW-620,56 µM (inactive)
same,GI50,NCI-H23,95.9 µM (inactive)
same,GI50,EKVX,58.2 µM (inactive)
same,GI50,SNB-19,> 100 µM (inactive)
same,GI50,KM12,> 100 µM (inactive)
same,GI50,HT-29,44.5 µM (inactive)
same,GI50,UACC-257,66.5 µM (inactive)
same,GI50,SN12C,77.8 µM (inactive)
same,GI50,MCF7,63 µM (inactive)
same,GI50,HCT-15,31.3 µM
